Measured values from the supplement of paper PMC10307832.

Assays:
Assay in all cases: relative viability (nuclei count vs DMSO), 5 days (fraction); higher = more cells survive
Ispinesib + Alpelisib = compound: Cc1ccc(C(=O)N(CCCN)[C@@H](c2nc3cc(Cl)ccc3c(=O)n2Cc2ccccc2)C(C)C)cc1 [Ispinesib] + Cc1nc(NC(=O)N2CCC[C@H]2C(N)=O)sc1-c1ccnc(C(C)(C)C(F)(F)F)c1 [Alpelisib] (partner 2 µM)
How it was run: (§1)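 A single step with final 0.05% Triton X-100, 1% formaldehyde and 1 ug/ml Hoechst fixed the cells and stained nuclei 5 days after treatment. Lung cancer cell lines in 1536-well plates had been treated by pin tool the day after seeding with one drug alone or a fixed anchor-drug dose plus five library-drug doses (not always all listed) in √10 steps, and nuclei were counted on 4× images. Relative viability is the ratio of nuclei in treated wells to nuclei in vehicle wells, taken as the median of duplicate plates.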

Ispinesib + Olaparib = compound: Cc1ccc(C(=O)N(CCCN)[C@@H](c2nc3cc(Cl)ccc3c(=O)n2Cc2ccccc2)C(C)C)cc1 [Ispinesib] + O=C(c1cc(Cc2n[nH]c(=O)c3ccccc23)ccc1F)N1CCN(C(=O)C2CC2)CC1 [Olaparib] (partner 8 µM)
How it was run: as §1

Ispinesib + Palbociclib = compound: Cc1ccc(C(=O)N(CCCN)[C@@H](c2nc3cc(Cl)ccc3c(=O)n2Cc2ccccc2)C(C)C)cc1 [Ispinesib] + CC(=O)c1c(C)c2cnc(Nc3ccc(N4CCNCC4)cn3)nc2n(C2CCCC2)c1=O [Palbociclib] (partner 0.5 µM)
How it was run: as §1

Linsitinib + Foretinib = compound: C[C@]1(O)C[C@@H](c2nc(-c3ccc4ccc(-c5ccccc5)nc4c3)c3c(N)nccn32)C1 [Linsitinib] + COc1cc2c(Oc3ccc(NC(=O)C4(C(=O)Nc5ccc(F)cc5)CC4)cc3F)ccnc2cc1OCCCN1CCOCC1 [Foretinib] (partner 0.25 µM)
How it was run: as §1

| Cell Line | relative viability (Ispinesib + Alpelisib; first compound 0.001 µM) | relative viability (Ispinesib + Alpelisib; first compound 0.003162 µM) | relative viability (Ispinesib + Alpelisib; first compound 0.01 µM) | relative viability (Ispinesib + Alpelisib; first compound 0.03162 µM) | relative viability (Ispinesib + Alpelisib; first compound 0.1 µM) | relative viability (Ispinesib + Olaparib; first compound 0.001 µM) | relative viability (Ispinesib + Olaparib; first compound 0.003162 µM) | relative viability (Ispinesib + Olaparib; first compound 0.01 µM) | relative viability (Ispinesib + Olaparib; first compound 0.03162 µM) | relative viability (Ispinesib + Olaparib; first compound 0.1 µM) | relative viability (Ispinesib + Palbociclib; first compound 0.001 µM) | relative viability (Ispinesib + Palbociclib; first compound 0.003162 µM) | relative viability (Ispinesib + Palbociclib; first compound 0.01 µM) | relative viability (Ispinesib + Palbociclib; first compound 0.03162 µM) | relative viability (Ispinesib + Palbociclib; first compound 0.1 µM) | relative viability (Linsitinib + Foretinib; first compound 0.01 µM) | relative viability (Linsitinib + Foretinib; first compound 0.03162 µM) | relative viability (Linsitinib + Foretinib; first compound 0.1 µM) | relative viability (Linsitinib + Foretinib; first compound 0.3162 µM) | relative viability (Linsitinib + Foretinib; first compound 1 µM) |
| --- | --- | --- | --- | --- | --- | --- | --- | --- | --- | --- | --- | --- | --- | --- | --- | --- | --- | --- | --- | --- |
| NCI-H2023 | 0.65 | 0.606 | 0.659 | 0.5 | 0.18 | 0.543 | 0.553 | 0.511 | 0.271 | 0.232 | 0.462 | 0.392 | 0.383 | 0.145 | 0.138 | 0.864 | 0.546 | 0.835 | 0.512 | 0.515 |
| NCI-H1437 | 1.11 | 1.14 | 0.972 | 0.893 | 0.272 | 0.685 | 0.653 | 0.763 | 0.7 | 0.256 | 0.329 | 0.319 | 0.325 | 0.332 | 0.13 | 1.18 | 1.11 | 1.25 | 0.822 | 1.25 |
| BEN | 1.06 | 1.13 | 1.12 | 0.758 | 0.353 | 1.03 | 1.35 | 1.13 | 0.832 | 0.782 | 0.463 | 0.514 | 0.478 | 0.47 | 0.372 | 0.635 | 0.578 | 0.642 | – | 0.753 |
| LXF-289 | 1.06 | 1.05 | 1.16 | 0.993 | 0.733 | 1.07 | 1.21 | 1.44 | 1.05 | 0.95 | 0.629 | 0.666 | 0.674 | 0.619 | 0.589 | 0.968 | 0.944 | 0.984 | – | 0.994 |
| NCI-H358 | 0.885 | 0.874 | 0.989 | 0.573 | 0.283 | 0.624 | 0.671 | 0.761 | 0.569 | 0.214 | 0.125 | 0.13 | 0.143 | 0.106 | 0.0965 | 0.62 | 0.701 | 0.607 | 0.538 | 0.365 |
| NCI-H1993 | 0.697 | 0.637 | 0.709 | 0.663 | 0.596 | 1.08 | 1.07 | 1.11 | 1.23 | 0.822 | 0.566 | 0.404 | 0.66 | 0.673 | 0.487 | 0.753 | 0.724 | 0.653 | 0.759 | 0.657 |
| NCI-H727 | – | 0.565 | 0.545 | 0.486 | 0.404 | 0.642 | 0.771 | – | 0.659 | 0.633 | 0.565 | 0.66 | – | 0.678 | 0.617 | 0.836 | 0.866 | 0.647 | 0.632 | 0.611 |
| LOU-NH91 | 0.724 | 0.705 | 0.751 | 0.607 | 0.553 | 0.929 | 0.915 | 0.969 | 0.906 | 0.369 | 0.535 | 0.548 | 0.513 | 0.52 | 0.336 | 0.953 | 0.939 | 0.879 | 0.926 | 0.842 |
| NCI-H1975 | 0.738 | 0.672 | 0.666 | 0.332 | 0.226 | 0.864 | 0.802 | 0.842 | 0.922 | 0.181 | 0.663 | 0.683 | 0.581 | 0.311 | 0.192 | 0.848 | 0.869 | 0.87 | 0.87 | 0.781 |
| PC-3 [JPC-3] | 0.992 | 1.09 | 1.07 | 1.06 | 1.11 | 1.23 | 1.31 | 0.887 | 1.12 | 0.541 | 0.533 | 0.55 | 0.548 | 0.553 | 0.395 | 1.04 | 1.03 | 1.04 | 0.951 | 0.922 |
| NCI-H2126 | 0.765 | 0.811 | 0.901 | 0.742 | 0.813 | 0.986 | 0.963 | 0.981 | 1.08 | 0.85 | 0.335 | 0.393 | 0.314 | 0.339 | 0.385 | 1.11 | 1.28 | 1.05 | 1.06 | 1.06 |
| LU99A | 0.527 | 0.572 | 0.66 | 0.318 | 0.208 | 0.249 | 0.264 | 0.235 | 0.234 | 0.245 | 0.398 | 0.44 | 0.481 | 0.315 | 0.285 | 0.766 | 0.839 | 0.838 | 0.553 | 0.662 |
| NCI-H23 | 0.547 | 0.679 | 0.785 | 0.731 | 0.459 | 0.306 | 0.379 | 0.336 | 0.384 | 0.175 | 0.457 | 0.529 | 0.629 | 0.372 | 0.187 | 1.04 | 1.06 | 0.924 | 0.949 | 1 |
| PC-14 | 1.01 | 1.05 | 1.05 | 0.942 | 0.174 | 0.27 | 0.141 | 0.0942 | 0.0729 | 0.144 | 0.493 | 0.439 | 0.134 | 0.0579 | 0.152 | 0.888 | 0.912 | 0.995 | 0.626 | 0.901 |
| A-427 | 1.1 | 1.21 | 0.993 | 1 | 1.04 | 0.714 | 0.784 | 0.728 | 0.696 | 0.22 | 0.53 | 0.538 | 0.55 | 0.322 | 0.282 | 1.12 | 1.15 | 1.19 | – | 1.11 |
| RERF-LC-KJ | 0.836 | 1.32 | 0.77 | 0.794 | 0.631 | 0.934 | 0.791 | 0.427 | 0.22 | 0.328 | 1.11 | 1.03 | 0.935 | 0.68 | 0.583 | 0.836 | 0.935 | 0.907 | 0.487 | 0.79 |
